In patent US20240269128A1, “COMPOUNDS FOR TREATING OR PREVENTING ALZHEIMER'S DISEASE” (THE UNITED STATES OF AMERICA, as represented by the …, priority 2021, published 2024):

Tested on: H4-hAPP cells
Test: Aβ secretion assay
Assay type: cell-based, human
Description: (§1) Aβ Secretion: H4-hAPP cells were cultivated in Opti-MEM supplemented with 10% FCS, 1% penicillin/streptomycin 200 μg/mL Hygromycin B and 2.5 μg/mL Blasticidin S. H4-hAPP cells were seeded into 96 well plates (2×10^4 cells per well). On the next day, cells in 96 well plates were treated with compounds, R.I. (DAPT 400 nM) or vehicle. 24 h later, supernatants were collected for further Aβ measurements by MSD® (V-PLEX Aβ Peptide Panel 1 (6E10) Kit, K15200E, Mesoscale Discovery).
as §1, with “secretion: Human APP overexpressing” for “Secretion:”, “HCQ (0.25 μM, 2.5 μM and 25 μM) or the reference item” for “with compounds, R.I.”, “nM), a γ-secretase inhibitor” for “nM) or”
(§2) Cultivation and treatment of H4-hAPP cells: H4-hAPP cells were thawed and cultivated in Opti-MEM supplemented with 10% FCS, 1% penicillin/streptomycin 200 μg/ml Hygromycin B and 2.5 μg/ml Blasticidin S (=culture medium). H4-hAPP cells were seeded into 96 well plates (2×10^4 cells per well). On the next day, cells in 96 well plates were treated with TUDCA (100 μM (C1), 10 μM (C2), or 1.0 μM (C3)), R.I. (DAPT 400 nM) or vehicle. Alternatively, cells in 96 well plates were treated with 25 μM HCQ/0.1 μM TUDCA (C1), 2.5 μM HCQ/100 μM TUDCA (C2), and 2.5 μM HCQ/10 μM TUDCA (C3). 24 h later, supernatants were collected for further Aβ measurements by MSD. The experiment was performed in n=6 technical replicates for all groups.
(§3) Aβ38, 40, 42 measurement: Supernatants were diluted 1:10 and analyzed for human Aβ38, 40, and 42 with MSD® 96-well MULTI-SPOT® 6E10 Abeta Triplex Assay (Mesoscale Discovery, Rockville, MD). The immune assay was carried out according to the manual and plates are read on the MESO QuickPlex SQ 120 multiplexing instrument. Analyte levels were evaluated according to adequate Aβ peptide standards (MSD) as pg per mL.
Aβ Secretion: H4-hAPP cells were cultivated in Opti-MEM supplemented with 10% FCS, 1% penicillin/streptomycin, hygromycin B (200 μg/ml), and blasticidin S (2.5 μg/ml). H4-hAPP cells were seeded into 96-well plates (2×10^4 cells per well). On the next day, cells in 96-well plates were treated with compounds, reference item [400 nM N-[N-(3,5-difluorophenacetyl-1-alanyl)]-S-phenylglycine t-butyl ester (DAPT)], or vehicle. Twenty-four hours later, supernatants were collected for further Aβ measurements by MSD [V-PLEX Aβ Peptide Panel 1 (6E10) Kit, K15200E, Mesoscale Discovery].
as §2, with “Culture” for “Cultivation”, “T.I.,” for “TUDCA (100 μM (C1), 10 μM (C2), or 1.0 μM (C3)),”, “vehicle.” for “vehicle. Alternatively, cells in 96 well plates were treated with 25 μM HCQ/0.1 μM TUDCA (C1), 2.5 μM HCQ/100 μM TUDCA (C2), and 2.5 μM HCQ/10 μM TUDCA (C3).”
as §3, with “measurement in H4-hAPP cells:” for “measurement:”, “Discovery).” for “Discovery, Rockville, MD).”, “were” for “are”, “120.” for “120 multiplexing instrument.”

Structure (SMILES) | secreted Aβ1-42 (HCQ 0.25 μM, 2.5 μM and 25 μM) | secretion of Aβ1-38 (TUDCA 100, 10, 1.0 μM, 24 h) | secretion of Aβ1-40 (TUDCA 100, 10, 1.0 μM, 24 h) | secretion of Aβ1-42 (TUDCA 100, 10, 1.0 μM, 24 h) | effect in Aβ release (H4 cells) (posterior probability of a protective effect)
CCN(CCO)CCCC(C)Nc1ccnc2cc(Cl)ccc12 (centres unmarked) [HCQ, hydroxychloroquine] | did not alter |  |  |  | 
C[C@H](CCC(=O)NCCS(=O)(=O)O)[C@H]1CC[C@H]2[C@@H]3[C@@H](O)C[C@@H]4C[C@H](O)CC[C@]4(C)[C@H]3CC[C@]12C [TUDCA, tauroursodeoxycholic acid] |  | lowers | lowers | lowers | protective
